# Source: patent publication US11590116B2 (THERAVANCE BIOPHARMA R&D IP, LLC, priority 2019, dated 2023)
# Legend:
# [1] = system: TGF-β-stimulated SMAD3 phosphorylation in BEAS-2B cells; assay: Cellular ALK5 potency assay, inhibition of TGF-β stimulated pSMAD3 formation in BEAS-2B cells; type: cell-based; settings: Homo sapiens; inhibition of TGF-β stimulated pSMAD3 formation, BEAS-2B cells; read-out: BEAS2B pIC50 (converted)
# Procedure, shortened: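 pSMAD3 was quantified by AlphaLISA in BEAS-2B lysates after 10 ng/mL TGF-β (final) for 30 min. Before stimulation, cells received compound for 1 h at 37° C in supplemented HBSS. Values are pIC50, relative to TGF-β-stimulated cells without compound.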
# [2] = target: T1, recombinant human ALK5 (TGF-βR1) protein (Homo sapiens, UniProt P36897); assay: Biochemical ALK5 (TGF-βR1) assay to measure pKi (LANCE Ultra ULight kinase assay); settings: apparent pKi from pIC50 by Cheng-Prusoff, read-out: ALK5 pKi (converted)
# T1 construct: purchased Life Technologies PR9075A
# T1 sequence (P36897 34-503): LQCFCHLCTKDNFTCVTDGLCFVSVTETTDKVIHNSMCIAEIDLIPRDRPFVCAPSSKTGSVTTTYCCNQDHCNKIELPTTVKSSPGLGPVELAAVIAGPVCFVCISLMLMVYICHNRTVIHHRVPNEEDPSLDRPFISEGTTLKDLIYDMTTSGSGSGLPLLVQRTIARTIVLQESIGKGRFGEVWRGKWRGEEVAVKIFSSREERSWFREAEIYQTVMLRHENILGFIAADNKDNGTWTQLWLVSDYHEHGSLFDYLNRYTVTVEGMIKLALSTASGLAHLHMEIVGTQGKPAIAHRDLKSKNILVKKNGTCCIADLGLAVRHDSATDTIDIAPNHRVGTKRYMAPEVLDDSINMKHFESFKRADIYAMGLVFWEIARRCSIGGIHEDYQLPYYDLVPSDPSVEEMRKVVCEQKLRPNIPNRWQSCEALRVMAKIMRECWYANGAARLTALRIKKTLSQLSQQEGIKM
# Procedure, shortened: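 After a 60 min room-temperature preincubation of ALK5 with compound, phosphorylation proceeds 60 min at 37 °C on ATP addition (125 μM as 5× stock). Detection: Eu-labelled phospho-Thr1342 Topo IIα antibody in EDTA buffer, pH 7.0; emission 665 nm.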
SMILES,Ki [2] [nM],IC50 [1] [nM]
"Cc1cccc(-c2[nH]nnc2-c2ccc3ncc(N4CCNCC4)cc3n2)n1 [Compound 479, 2-[5-(6-methyl-2-pyridyl)-1H-triazol-4-yl]-7-piperazin-1-yl-1,5-naphthyridine]",0.398 to 3.16,200 to 1260
"Cc1cccc(-c2n[nH]cc2-c2ccc3ncc(-c4nc(C(N)=O)co4)cc3n2)n1 [Compound 480, 2-[6-[3-(6-methyl-2-pyridyl)-1H-pyrazol-4-yl]-1,5-naphthyridin-3-yl]oxazole-4-carboxamide]",0.0398 to 0.316,25.1 to 158
"CNCCn1cc(-c2cnc3ccc(-c4c[nH]nc4-c4cccc(C(F)F)n4)nc3c2)cn1 [Compound 481, 2-[4-[6-[3-[6-(difluoromethyl)-2-pyridyl]-1H-pyrazol-4-yl]-1,5-naphthyridin-3-yl]pyrazol-1-yl]-N-methyl-ethanamine]",< 0.0316,25.1 to 158
"Cc1cccc(-c2n[nH]cc2-c2ccc3ncc(-c4c[nH]nc4C(F)(F)F)cc3n2)n1 [Compound 484, 2-[3-(6-methyl-2-pyridyl)-1H-pyrazol-4-yl]-7-[3-(trifluoromethyl)-1H-pyrazol-4-yl]-1,5-naphthyridine]",0.0398 to 0.316,< 20
"Cc1nc(-c2n[nH]cc2-c2ccc3ncc(-c4cnn([C@@H]5CCCC[C@H]5N)c4)cc3n2)ccc1F [Compound 490, (1R,2R)-2-(4-(6-(3-(5-fluoro-6-methylpyridin-2-yl)-1H-pyrazol-4-yl)-1,5-naphthyridin-3-yl)-1H-pyrazol-1-yl)cyclohexan-1-amine]",< 0.0316,< 20

# Now from value to compound, other results behind:
Ki [2] [nM],SMILES,IC50 [1] [nM]
< 0.0316,"Cc1nc(-c2n[nH]cc2-c2ccc3ncc(-c4cn[nH]c4)cc3n2)ccc1F [Compound 482, 2-[3-(5-fluoro-6-methyl-2-pyridyl)-1H-pyrazol-4-yl]-7-(1H-pyrazol-4-yl)-1,5-naphthyridine]",< 20
0.0398 to 0.316,"Cc1nc(-c2n[nH]cc2-c2ccc3ncc(-c4nc(C)c(CCN)[nH]4)cc3n2)ccc1F [Compound 483, 2-[2-[6-[3-(5-fluoro-6-methyl-2-pyridyl)-1H-pyrazol-4-yl]-1,5-naphthyridin-3-yl]-4-methyl-1H-imidazol-5-yl]ethanamine]",200 to 1260
0.0398 to 0.316,"Cc1cccc(-c2[nH]ncc2-c2ccc3ncc(C(=O)OC4CCNCC4)cc3n2)n1 [Compound 485, 4-piperidyl 6-[5-(6-methyl-2-pyridyl)-1H-pyrazol-4-yl]-1,5-naphthyridine-3-carboxylate]",25.1 to 158
3.98 to 31.6,"Cc1cccc(-c2n[nH]cc2-c2ccc3ncc(OCC(=O)N4CCOCC4)cc3n2)n1 [Compound 486, 2-[[6-[3-(6-methyl-2-pyridyl)-1H-pyrazol-4-yl]-1,5-naphthyridin-3-yl]oxy]-1-morpholino-ethanone]",1580 to 10000
< 0.0316,"CNCCn1cc(-c2cnc3ccc(-c4c[nH]nc4-c4cccc(C)n4)nc3c2)cn1 [Compound 487, N-methyl-2-[4-[6-[3-(6-methyl-2-pyridyl)-1H-pyrazol-4-yl]-1,5-naphthyridin-3-yl]pyrazol-1-yl]ethanamine]",< 20
0.0398 to 0.316,"Cc1cccc(-c2n[nH]cc2-c2ccc3ncc(Nc4ccc(N5CCNCC5)cc4)cc3c2)n1 [Compound 488, 6-[3-(6-methyl-2-pyridyl)-1H-pyrazol-4-yl]-N-(4-piperazin-1-ylphenyl)quinolin-3-amine]",25.1 to 158
0.0398 to 0.316,"Cc1cccc(-c2n[nH]cc2-c2ccc3ncc(-c4[nH]nc5c4CNCC5)cc3n2)n1 [Compound 489, 2-[3-(6-methyl-2-pyridyl)-1H-pyrazol-4-yl]-7-(4,5,6,7-tetrahydro-2H-pyrazolo[4,3-c]pyridin-3-yl)-1,5-naphthyridine]",200 to 1260
0.0398 to 0.316,"Cc1cccc(-c2[nH]cnc2-c2ccc3ncc(N4CCNC(CC(=O)OCC5CNC5)C4)cc3c2)n1 (centres unmarked) [Compound 491, azetidin-3-ylmethyl 2-[4-[6-[5-(6-methyl-2-pyridyl)-1H-imidazol-4-yl]-3-quinolyl]piperazin-2-yl]acetate]",200 to 1260
